Source: patent US20050049220A1, “Dosing regimen for Flaviviridae therapy” (priority 2003, published 2005)
Where two headings read alike, the source gives them in different places.

Key:
[1] = system: HCV replicon cells (Huh-7); assay: 7-day cell growth dynamics, trypan-blue cell count; details: for effect on cell proliferation: 7-day period, at 96 h EC90 value (ribavirin 100 μM, IFN 100 IU/ml)
Method: FIG. 2 is a graphical depiction of the dynamics of cell growth and HCV RNA levels after exposure to control anti-HCV compounds. HCV replicon cells were seeded at approximately 10^4 cells per well in a 24-well plate. Over a 7-day period, cells were counted daily, and rRNA and HCV RNA were quantified by Q-RT-PCR. A: IFN-α-2a at 100 IU/ml; B: ribavirin at 100 μM. ●: cell proliferation in absence of compound; ◯: cell proliferation in presence of compound; ▾: HCV RNA levels in untreated cells; ∇: HCV RNA levels in the presence of compound. The curves shown are averages of 3 independent experiments.
Therefore, experiments were conducted to monitor HCV RNA levels and the cell growth dynamics over a 7-day period.
The dynamics of HCV replicon cells exposed to these inhibitors (at their EC90 value) was monitored over a 7-day period.

HCV replicon = HCV replicon assay: HCV RNA by Q-RT-PCR, 4 days exposure; format: cell-based, hepatitis C virus (HCV); details: for EC90: read-out: Corrected HCV RNA EC90; for log reduction at 10 µM: read-out: Corrected HCV RNA log10 reduction at 10 μM
Method: Antiviral screening assays can be done in the same media without G418 as follows: in order to keep cells in logarithmic growth phase, seed cells in a 96-well plate at low density, for example 1000 cells per well. Add the test compound immediate after seeding the cells and incubate for a period of 3 to 7 days at 37° C. in an incubator. Media is then removed, and the cells are prepared for total nucleic acid extraction (including replicon RNA and host RNA). Replicon RNA can then be amplified in a Q-RT-PCR protocol, and quantified accordingly. […] This value is called DeltaCt (ΔCt or DCt).
This value is called DeltaCt (ΔCt or dCt).

HCV replicon RNA [2] = assay: Replicon RNA copy number per cell; format: cell-based, hepatitis C virus (HCV); details: for change in replicon RNA copy number per cell (words): 7-day period, treated versus no-treatment controls
Method: FIG. 4 is a graphical depiction of the log10 changes for replicon RNA levels per cell. The plots were obtained from data collected in FIGS. 2 and 3, in which log10 changes for cell count and replicon RNA levels were subtracted from each other. A. Control antiviral compounds. ●: no drug control; ▾: IFN-α-2a at 100 IU/ml; ▪: ribavirin at 100 μM. B. Selection of the most important anti-metabolites. ●: no drug control; ▾: dFdC at 50 nM; ▪: CP-C at 25 μM; ♦: CPE-C at 2.5 μM; ▴: PALA at 10 μM; ●: PZF at 5 μM.
To express the specificity of the antiviral action of the control compounds versus the anti-metabolites, the log10 change in replicon RNA copy number per cell and per day was calculated from the above experiments.

Huh-7 cells = assay: Cellular rRNA levels / cytotoxicity in HCV replicon cells; details: 100 μM; 4 days; HCV replicon transfected Huh-7 cells
Description: In a typical setting, a compound might reduce both the host RNA polymerase activity and the replicon-encoded polymerase activity. Therefore, quantification of rRNA (or any other host RNA polymerase I product) or beta-actin mRNA (or any other host RNA polymerase II) and comparison with RNA levels of the no-drug control is a relative measurement of the effect of the test compound on host RNA polymerases.
With the availability of both the HCV ΔCt data and the rRNA ΔCt, a specificity parameter can be introduced. This parameter is obtained by subtracting both ΔCt values from each other.
IFN-α-2a and ribavirin were tested over a range of concentrations for their ability to reduce the HCV RNA levels in exponentially growing replicon cells after 4 days of exposure as described (Stuyver, L. et al. “A ribonucleoside analogue that blocks the replication of bovine viral diarrhea and hepatitis C viruses in culture” Antimicrob. Agents Chemother. 2003, 47, 244-254).
Gemcitabine was dissolved in DMSO and added to the culture media of a cellular model system of Huh7 cells harboring self-replicating HCV RNA, at final concentrations ranging from […]. In such experiments, one way to express the antiviral effectiveness of a compound is to subtract the threshold reverse-transcriptase polymerase chain reactions (RT-PCR) cycle of the test compound with the average threshold RT-PCR cycle of the negative control. This value is called DeltaCt (ΔCt or dCt). With the availability of both the HCV ΔCt data and the rRNA ΔCt, a specificity parameter can be introduced. This parameter is obtained by subtracting both ΔCt values from each other.

HCV replicon cells = assay: Prevention studies with natural ribo- or 2′-deoxy nucleosides; format: cell-based, human; details: test compound at 96 h EC90 value; nucleosides at 50 μM
HCV replicon RNA [3] = assay: 7-day dynamics of HCV RNA levels; format: cell-based, hepatitis C virus (HCV); details: for effect on HCV RNA levels: 7-day period, at 96 h EC90 value (IFN 100 IU/ml)
HCV = details: cited from earlier work
[4] = Hepatitis C virus, 96 h, 100 μM, 4 days, HCV replicon transfected Huh-7 cells, read-out: log10 RNA reduction at 100 μM, HCV

NC(=O)c1[nH]nc([C@@H]2O[C@H](CO)[C@@H](O)[C@H]2O)c1O [PZF, pyrazofurin]
effect on cell proliferation [1]: reduced cell proliferation only minimally
EC90 (HCV replicon; Hepatitis C virus, 96 h): 3.8 µM
log reduction at 10 µM (HCV replicon; Hepatitis C virus, 96 h): 1.16 ± 0.21
log reduction at 100 µM (HCV replicon; Hepatitis C virus, 96 h, read-out: Corrected HCV RNA log10 reduction at 100 μM): 1.46 ± 0.08
log reduction at 100 µM (HCV replicon; [4]): 1.88 ± 0.05
reduction in replicon RNA levels per cell (HCV replicon RNA [2]; 5 μM, after 7 days treatment): 2.96 log10
change in replicon RNA copy number per cell (words) (HCV replicon RNA [2]): time dependent reduction
log10 RNA reduction at 100 μM, rRNA (Huh-7 cells): 0.42 ± 0.03 log10
prevention of antiviral and cytostatic effects by natural nucleosides (HCV replicon cells): prevented by addition of uridine
effect on HCV RNA levels (HCV replicon RNA [3]): significantly reduced HCV RNA levels

NC(=O)c1ncn([C@@H]2O[C@H](CO)[C@@H](O)[C@H]2O)n1 [Ribavirin, 1-β-D-ribofuranosyl-1-1,2,4-triazole-3-carboxamide]
log10 reduction in cell growth at day 7 compared to day 0 ([1]; 100 μM): 0.22±0.1 log10
log10 reduction in cell growth compared to the no treatment control on day 7 ([1]; 100 μM): 1.53 log10
effect on cell proliferation [1]: completely inhibited cell proliferation
effect on serum levels of HCV-RNA (HCV; HCV patients): does not lower
patients with serum amino transferase levels reduced to normal (HCV): 40%
log reduction at 10 µM (HCV replicon; Hepatitis C virus, 96 h, 10 μM, corrected for rRNA): 0.16 ± 0.1
log reduction at 100 µM (HCV replicon; [4]): 1.96 ± 0.28
log reduction at 100 µM (HCV replicon; Hepatitis C virus, 96 h, 100 μM, corrected for rRNA, read-out: Corrected HCV RNA log10 reduction at 100 μM): 1.05 ± 0.29
EC90 (HCV replicon; Hepatitis C virus, 96 h incubation): ~100 µM
change in replicon RNA copy number per cell (words) (HCV replicon RNA [2]): only minimally
change in replicon RNA copy number per cell (words) (HCV replicon RNA [2]; listed as ribavirin): changed only marginally
log10 RNA reduction at 100 μM, rRNA (Huh-7 cells): 0.91 ± 0.12 log10
prevention of antiviral and cytostatic effects by natural nucleosides (HCV replicon cells): 2′-deoxyguanosine and guanosine prevented the effects
HCV RNA reduction on day 7 compared to untreated controls (HCV replicon RNA [3]; 100 μM): 2.08 log10

Cyclopentylcytosine [CP-C]
effect on cell proliferation [1]: cytostatic effects
Corrected HCV RNA log10 reduction at 10 μM (HCV replicon; 10 μM, corrected for rRNA): 0.64 ± 0.10 log10
log10 RNA reduction at 100 μM, HCV (HCV replicon; 100 μM, 4 days, HCV replicon transfected Huh-7 cells): 1.97 ± 0.38 log10
Corrected HCV RNA log10 reduction at 100 μM (HCV replicon; 100 μM, corrected for rRNA): 1.06 ± 0.26 log10
EC90 (HCV replicon; 96 h incubation): 25 µM
change in replicon RNA copy number per cell (words) (HCV replicon RNA [2]): profile similar to that seen for IFN-α-2a
log10 RNA reduction at 100 μM, rRNA (Huh-7 cells): 0.91 ± 0.13 log10
prevention of antiviral and cytostatic effects by natural nucleosides (HCV replicon cells): addition of cytidine to the culture medium compensated for the inhibitory effects
effect on HCV RNA levels (HCV replicon RNA [3]): reduced HCV-replicon RNA levels
